Read-outs that look alike come from different tables or passages of the source. Marks after values point to notes of the source that are not given here.
Target: T1, AbPPO4 (Agaricus bisporus, UniProt C7FF05, S179N/V121A)
T1 construct: GST (glutathione-S-transferase) (N, cleaved yes); made in house; host or cells: E. coli BL21(DE3)
Assay type: biochemical
Parameters: α · Ki: unit not given here
Conditions: for Inhibition type / α (inhibition parameter) from the Lineweaver–Burk intercepts / Ki / α (inhibition parameter) from activity plot: 50 mM Na-citrate pH 6.8; for Inhibition type: L-DOPA substrate; for α · Ki: from Lineweaver-Burk ordinate intercepts vs [I], [S] 0.4-[…] (Table S5); for α (inhibition parameter) from activity plot: hyperbolic fit
Description: AbPPO4 was purified and activated according to Pretzler et al.[15]. […] The diphenolase activity of tyrosinase was monitored using 1 mM L-DOPA (Fig. S1A) as the substrate. Considering that the Wells–Dawson POT stability is pH and possibly time dependent, a speciation study was performed which is detailed in the paragraph "Speciation of Wells–Dawson POT by ^183W-NMR and ^31P-NMR analyses at pH 6.8". The concentration of the investigated Wells–Dawson phosphotungstates was in the range between 0 and 5 mM. If enzymatic inhibition was observed, data were taken in triplicates and fitted with a hyperbolic function (cf. SI Eq. (5)) from a mixed inhibition model to evaluate the Ki and α-parameters. […] (Fig. S1B) was additionally tested and evaluated applying exactly the same mathematical model.
The type of enzymatic inhibition is usually investigated by linear plots according to Lineweaver–Burk, also allowing for further validation of the inhibitory constant Ki.[9] […] The slopes (SI Eq. (13), insets in Figs. S14–S17) and ordinate intercepts of these regression lines were further evaluated to validate the inhibitory constant Ki and the α-parameter from the non-linear regression procedure. […] Similarly, the Lineweaver–Burk ordinate intercepts were evaluated for the α-parameter (cf. Table S5 and Table 1).
UV–VIS measurements were carried out on a Shimadzu UV 2401PC following the specific absorption of dopachrome at 475 nm (ε = 3700 M^−1 cm^−1[7]). For all measurements, 50 mM Na-citrate at pH 6.8 was used as the buffer agent to ensure physiological conditions. The stock solutions of POTs were prepared on the day of measurements and used within 3 days.
For a general 1 mL reaction setup in a polystyrene cuvette, 1 µg/mL AbPPO4 (~ 23 nM) was used to catalyze the reaction. The relative inhibition was investigated using 1 mM L-DOPA as the substrate and applying an inhibitor concentration range from 0 to 5 mM to obtain activity curves. For the Lineweaver–Burk plots, a L-DOPA concentration range of 0.4–1.5 mM was assayed for three different POT concentrations, respectively. […]
is the enzymatic reaction velocity, the maximal enzymatic velocity of the enzyme, the concentration for the half-maximal velocity and the substrate concentration. If enzyme inhibition is taken into account, apparent values (e.g., , , ) are employed. For all inhibition mechanisms the apparent maximal velocity is given by and the apparent Michalis-Menten constant is Equations (3) and (2) are inserted into equation (1). To obtain the relative inhibition (in %), is divided by the uninhibited enzymatic velocity .
Herein, [I] refers to the inhibitor concentration, Ki is the inhibition constant measuring the […]
The three ideal inhibition types are reflected by three limiting conditions for α, with α as quotient of the inhibition constant of the uncompetitive and competitive inhibition:
(A) 0 < α <<1: uncompetitive inhibition
(B) α = 1: non-competitive inhibition
(C) α >> 1: competitive inhibition […]
uncompetitive and non-competitive inhibition modes.
The concentration of L-DOPA was kept constant at 1 mM for all experiments.
The final hyperbolic equation (5) was used for the curve

[1] = L-DOPA 0.4-[…], three inhibitor concentrations, read-out: Ki (inhibition constant) from the Lineweaver–Burk slopes
[2] = hyperbolic fit of mixed inhibition model, 1 mM L-DOPA, 0-5 mM inhibitor, read-out: Ki (inhibition constant) from activity plot

T1 sequence (C7FF05 1-383 V121A/S179N): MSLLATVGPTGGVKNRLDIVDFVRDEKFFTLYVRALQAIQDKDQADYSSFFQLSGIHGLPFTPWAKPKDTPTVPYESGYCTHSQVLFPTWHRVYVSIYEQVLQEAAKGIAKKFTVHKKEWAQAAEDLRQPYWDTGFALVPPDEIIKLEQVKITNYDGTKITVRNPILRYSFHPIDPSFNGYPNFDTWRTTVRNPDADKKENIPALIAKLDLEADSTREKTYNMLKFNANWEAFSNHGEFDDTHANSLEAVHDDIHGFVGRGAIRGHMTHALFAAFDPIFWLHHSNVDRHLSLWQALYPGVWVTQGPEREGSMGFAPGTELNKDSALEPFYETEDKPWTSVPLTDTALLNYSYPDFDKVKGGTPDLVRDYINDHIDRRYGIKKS

K6[α/β-P^V2W^VI18O62]·14H2O [[P2W18]^6−]
Inhibition type: mixed-type inhibition
α (inhibition parameter) from the Lineweaver–Burk intercepts (L-DOPA 0.4-[…]): 0.22
Ki [1]: 13 mM
α · Ki: 2.85
Ki [2]: 9.7 mM
α (inhibition parameter) from activity plot (1 mM L-DOPA): 0.013

K10[α2-P^V2W^VI17O61]·20H2O [[P2W17]^10−]
Inhibition type: mixed-type inhibition
α (inhibition parameter) from the Lineweaver–Burk intercepts (L-DOPA 0.4-[…]): 0.01^a, 0.01^b
Ki [1]: 10.6 mM
α · Ki: 0.10
Ki [2]: 6.5 mM
α (inhibition parameter) from activity plot (1 mM L-DOPA): 0.01^a, 0.01^b

K12[P^V2W^VI15O56]·24H2O [[P2W15]^12−]
Inhibition type: mixed-type inhibition
α (inhibition parameter) from the Lineweaver–Burk intercepts (L-DOPA 0.4-[…]): 0.20
Ki [1]: 10.7 mM
α · Ki: 2.14
Ki [2]: 13.6 mM
α (inhibition parameter) from activity plot (1 mM L-DOPA): 0.003

(NH4)12[H2P^V2W^VI12O48]·24H2O [[P2W12]^12−]
Inhibition type: mixed-type inhibition
α (inhibition parameter) from the Lineweaver–Burk intercepts (L-DOPA 0.4-[…]): 0.28
Ki [1]: 5.6 mM
α · Ki: 1.58
Ki [2]: 7.5 mM
α (inhibition parameter) from activity plot (1 mM L-DOPA): 0.017
